The text below walks through data of article PMC9945865, “Anticancer evaluation of new organometallic ruthenium(II) flavone complexes” (RSC Medicinal Chemistry, 2022).

The nature of data set [1]: Temperature dependent UV-vis stability of the complexes. It is filed as physicochemical. Also noted: key to Δλ260: change in absorbance at 260 nm (absorbance units). The following applies: for λ260 (absorbance at 260 nm) / UV-vis stability profile: 0.1% DMSO/ddH2O; for UV-vis stability profile: temperature increments 20-80 °C, 6 h time interval. As to the method:
Wavelength (nm) Wavelength (nm)
Figure 3. Temperature dependant UV-VIS spectra of (A) 1Ru and (B) 2Ru in 0.1%DMSO/ddH2O solution recorded
over a 6 h time interval.
Table 1. λ260a and Δ λ260b of complexes 1Ru and 2Ru at 20 °C – 80 °C

Data set [2] relates to VEGF i-motif DNA. Briefly: I-motif DNA UV melting (thermal stability). The following applies: for Tm: VEGF i-motif with flavone at 1 : 1 ratio, 295 nm, free DNA 46 °C; for ΔTm: ΔTm = Tm (DNA-flavone) − Tm (DNA). Format: binding, human. The source says: (§1) The effect of this set of flavones on VEGF and c-myc was further evaluated via thermal stability measurements. Stabilizing/destabilizing the promotor i-motif structures is often reported to regulate expression of the corresponding genes, which for VEGF and c-myc could have detrimental effects on cancer growth and propagation.[48] As observed in Fig. 9, effects of the test flavones on the thermal stability of the VEGF and c-myc i-motif sequences were generally marginal and in agreement with λmax chromophoric shifts. […] Compound 1 destabilized VEGF i-motif in contrast to stabilizing the c-myc one. This mirrored the trend of a higher chromophoric shift observed for flavone 1 with VEGF i-motif sequence that also differed in pattern (hypochromic) from the shift witnessed with the c-myc sequence (hyperchromic). These findings could indicate higher selectivity of the 4-oxo derivative (1) towards VEGF i-motif based on an intercalative binding mode especially that hypochromic shifts are reported with DNA intercalation.[49,50] […] In this regard, the highest i-motif activity seen for the parent flavonoids was switched from VEGF to c-myc with compound 1 and vice versa with compound 2 upon Ru chelation. This emphasizes the key role of the interplay between the substitution at position 4 and metal complexation on the interaction with biological targets.
(§2) UV-visible absorbance measurements and DNA UV melting studies were performed on a Cary 300 C (Varian USA) UV-visible spectrophotometer. VEGF and c-myc i-motif DNA (5′-3′ sequences ([…]) and ([…]), respectively) were purchased from Sigma-Aldrich (Gillingham, UK) and used without further purification. Na cacodylate buffer (20 mM, pH 5.5) was used for both i-motifs. DNA concentrations were determined by measuring the absorbance at 260 nm after melting using the molar extinction coefficient supplied by the manufacturer. VEGF and c-myc i-motifs were prepared for experiments by diluting with buffer solution, annealed with or without the flavonoid at 95 °C for 5 min then gently cooled to room temperature. The stock solutions of the test compounds (20 mM) were prepared in 100% sterile DMSO. These stocks were then appropriately diluted with HPLC grade water and DMSO levels were maintained below 0.1% in the test concentrations.
(§3) UV-visible absorbance measurements and UV melting studies of either free i-motifs (VEGF or c-myc), free flavone (1, 1Ru, 2 or 2Ru) or both i-motif DNA and flavone (2 μM: 2 μM) were recorded using 1.0 cm matched quartz cuvettes. First spectra were recorded in the range of 200–500 nm to determine the relevant wavelength range were no peaks were observed above 320 nm. […] UV-visible absorbance was measured at 25 °C while melting curves were collected at a heating rate of 1 °C min^−1 from 20 to 90 °C. Tm was calculated by non-linear fitting of the sigmoidal curve obtained at 295 nm.

A further data set concerns c-myc i-motif DNA. Briefly: I-motif DNA UV melting (thermal stability). Format: binding, human. The following applies: for Tm: c-myc i-motif with flavone at 1 : 1 ratio, 295 nm, free DNA 45 °C; for ΔTm: c-myc i-motif, 1 : 1 ratio, ΔTm = Tm (DNA-flavone) − Tm (DNA).
Description: as §1, §2, §3

The test system of a further data set is HUVECs. As to the kind of experiment: Matrigel endothelial cell tube formation assay (VEGF-mediated). Format: cell-based, human. Particulars: 12 h; for tube formation inhibition activity: 1 μM. As to the method: In our recent study,[30] the 4′-chlorophenylflavone derivatives 1 and 2 have shown promising antiangiogenic activities in vitro. Herein, the effect of complexation with a ruthenium(II) metal ligand on the antiangiogenic activity of 1 and 2 was evaluated using the Matrigel tube formation assay that assesses many of the main steps involved in the process of angiogenesis. Inhibition of VEGF-mediated tube formation by the tested substrates was observed after 12 h of treatment on HUVECs at 1 μM and 10 μM concentrations. Luteolin is a natural flavone well known for its high antiangiogenic activity both in vitro and in vivo[34] and as such was used in this study as a reference standard. In accordance with reported data, luteolin inhibited the measured elements of tube formation by 30% compared to the positive control.[34,35] […] The ability of Ru(II) organometallic derivatives to target tumour metastasis has been widely reported both in vitro and in vivo.[3,6,9,36] Thus, based on the preliminary antiangiogenic trends observed for our target Ru(II) complexes (1Ru and 2Ru) and their parent flavones (1 and 2), we further investigated their antiproliferative and antimetastatic potential on the estrogen receptor positive breast cancer cell line (MCF-7) and the more aggressive triple negative cell line (MDA-MB-231).
HUVECs were cultured until confluency and then serum starved (0.1% serum) for 24 h. The tube formation assay followed the reported assay.[56] Briefly, 96 well plates were coated with 50 μL of Corning™ Matrigel™ GFR Membrane Matrix at 4 °C and incubated at 37 °C for 1–2 h to solidify. Serum starved HUVECs were seeded on the solidified Matrigel at 3 × 10^5 cells per mL and treated with medium containing VEGF (10 ng mL^−1) and either luteolin or one of the synthesised derivatives (at 1 μM or 10 μM). Plates were incubated for 12 h and photos covering the whole well area were taken using 4× magnification power of an inverted light microscope. Number of junctions, number and length of segments and master segments were quantified from the taken Images via the Angiogenesis Analyzer plugin[57] in ImageJ software.[58] […] Data was represented as a ratio to the positive control (VEGF enriched).

Data set [3] relates to VEGF i-motif DNA. Briefly: I-motif DNA binding, UV-visible absorbance. Further details: species or system human.
Description: I-motifs are four stranded antiparallel cytosine rich DNA sequences capable of forming at telomere and promotor regions of genomic DNA.[41,42] […] Due to the presence of potential i-motif forming sequences in 69% of promoter regions in human oncogenes, they are postulated to play a key role in oncogene expression regulation.[44] VEGF and c-myc i-motif sequences are prevalent in oncogene promotor regions in many cancers including breast cancer and as such their ligands have potential anticancer roles.[45] The natural flavonol, fisetin, is reported to specifically bind to VEGF i-motif DNA and regulate its function by stabilizing its hairpin structure.[31] […] In continuation of our investigation of the effects of Ru metal complexation on the different biological activities of flavonoids, interactions with VEGF and c-myc i-motif DNA were studied using UV-vis spectroscopic techniques. […] However, 2Ru's addition led to a 1 nm hypsochromic shift of VEGF i-motif absorbance maximum from 272 to 271 nm. On the other hand, addition of the 4-oxo flavone (1) and its Ru complex (1Ru) led to minor changes in λmax of both sequences that was hypochromic (5% and 3%) with VEGF and hyperchromic (2% and 5%) in case of c-myc (Fig. 8).
as §2, §3

Where [4] appears, read: DNA : flavonoid 2 μM : 2 μM, pH 5.5, 25 °C.

A word on the ΔTm: it is the change in melting temperature against a reference sample.

Consider `Cc1ccc(C(C)C)cc1.O=c1cc(-c2ccc(Cl)cc2)oc2cc(O)cc([O-])c12.[Cl-].[Ru+2]` [1Ru, chlorido [(5-oxo-κO)-7-hydroxy-2-(4′-chlorophenyl)-4H-chromen-4-onato-κO] (η^6-p-cymene)ruthenium(II)], for which the Δλ260 in data set [1] (20 °C (baseline)) is listed as 0; in data set [1] (40 °C minus 20 °C), 0.00072; in data set [1] (60 °C minus 20 °C), 0.00174; in data set [1] (80 °C minus 20 °C), 0.00388. Besides, the “λ260 (absorbance at 260 nm)” value is given as 0.0435 in data set [1] (20 °C), 0.04422 in data set [1] (40 °C), 0.04525 in data set [1] (60 °C) and 0.04738 in data set [1] (80 °C). Also, the UV-vis stability profile result in data set [1] is reported as “sufficient stability”. Further, the Tm with VEGF i-motif DNA [2] stood at 47 °C; in the data set on c-myc i-motif DNA it was 48 °C. In addition, the ΔTm was found to be 1 °C in the data set on VEGF i-motif DNA [2] (VEGF i-motif, 1 : 1 ratio) and 3 °C in the data set on c-myc i-motif DNA. Further, the “tube formation inhibition activity” value in the data set with HUVECs is on record as “total loss of their parents' tube formation inhibition activity”. The “overall tube formation inhibition” value in the data set with HUVECs (10 μM, insignificant (p > 0.05)) was found to be 22%. Moreover, the “hypochromic change at λmax” value in the data set on VEGF i-motif DNA [3] (setting [4]) was determined as 3%.
With `Cc1ccc(C(C)C)cc1.[Cl-].[O-]c1cc(O)cc2oc(-c3ccc(Cl)cc3)cc(=S)c12.[Ru+2]` [2Ru, chlorido [(5-oxo-κO)-7-hydroxy-2-(4′-chlorophenyl)-4H-chromen-4-thionato-κO] (η^6-p-cymene)ruthenium(II)], the Δλ260 in data set [1] (20 °C (baseline)) worked out at 0; in data set [1] (40 °C minus 20 °C), 0.0013; in data set [1] (60 °C minus 20 °C), 0.0021; in data set [1] (80 °C minus 20 °C), 0.0028. The “λ260 (absorbance at 260 nm)” value in data set [1] (20 °C) worked out at 0.03108; in data set [1] (40 °C), 0.02973; in data set [1] (60 °C), 0.02902; in data set [1] (80 °C) it was 0.02832. The UV-vis stability profile result in data set [1] is “sufficient stability”. Besides, the Tm with VEGF i-motif DNA [2] came out at 42 °C; in the data set with c-myc i-motif DNA it was 44 °C. For the same compound, the “decrease in the i-motif's transition temperature (Tm)” value in the data set on VEGF i-motif DNA [2] (VEGF i-motif, 1 : 1 ratio) came out at 4 °C. The ΔTm was −4 °C with VEGF i-motif DNA [2] (VEGF i-motif, 1 : 1 ratio) and −1 °C with c-myc i-motif DNA. Also, the “tube formation inhibition activity” value in the data set on HUVECs is reported as “total loss of their parents' tube formation inhibition activity”. The “reduction in the number of junctions” value with HUVECs (10 μM, p < 0.01) was found to be 40%. The “reduction in number and length of master segments” value in the data set on HUVECs (10 μM, p < 0.05) was found to be 35%. The “hyperchromic shift (increase) at absorbance maximum λmax” value in the data set on VEGF i-motif DNA [3] (setting [4]) was found to be 2%. Moreover, in the data set with VEGF i-motif DNA [3] (from 272 to 271 nm, 1 : 1 ratio), the “hypsochromic shift of absorbance maximum” value is listed as 1 nm.
